Measurements as given in patent US6197760A (priority 2000, dated 2001).
Entries after “also recorded” stand apart in the source; their conditions may differ. Where two headings read alike, the source gives them in different places.

What was measured:
HeLa cells = details: in vitro; cited from earlier work
[1] = system: MCF-7 mammary tumor xenograft; design: species or system human; details: in vivo; for Days delay (T-C): sc
L1210/CPA leukemia = format: in vivo, male CDF1 mice
M5076 sarcoma [2] = details: mouse, in vivo; cited from earlier work
Lewis lung carcinoma = details: mouse, in vivo; for % ILS (increase in life span, excluding survivors) / Log kill total (Log10 cell kill) / Tumour-free survivors: ip
[3] = system: MX-1 mammary tumor xenograft; format: in vivo, human
mammary tumor 16/C = system: mammary tumor 16/C; design: species or system murine; details: mouse, in vivo
in vivo [4] = details: mouse, ip
in vivo [5] = details: mouse, ip, MTD Dosage (highest non-toxic dose, LD10 or less)
P388 leukemia [6] = details: mouse, in vivo; cited from earlier work
P388 leukemia [7] = system: P388 leukemia; design: species or system murine; details: mouse, in vivo; for 45-Day Surv/Total / % ILS / Approx. Net Log10 Change In Tumor Burden at End of Rx / Median Day of Death: ip, 100 mg/kg
LOX-IMVI melanoma = assay: Evaluation against i.p. implanted LOX-IMVI melanoma (Table 6); format: in vivo, human; details: for 55-Day Surv./Total / % ILS / Median Day of Death: IP, Q1DX1 (1); for increase in life span (ILS) / survivors: Table 6
Experimental: BM-IPM was evaluated vs. human LOX-IMVI melanoma and produced a 52% increase in life span (ILS) and 20% survivors, while IPM yielded an identical ILS with no survivors.
Evaluation of BM-IPM Against I.P. Implanted Human
Treatment: IP: Q1DX1 (1) Therapeutic Response

M5076 sarcoma [8] = assay: Response of s.c. implanted M5076 sarcoma (Table 4); format: in vivo, murine; details: for days T-C: Table 4, dose not given
Experimental: Response of S.C. Implanted M5076 Sarcoma to Treatment with
The compounds were injected i.p. daily on days 11-15.

[9] = system: experimental leukemias and solid tumors; design: species or system mice and rats; details: in vivo
[10] = patients treated with Ifos; cited from earlier work
[11] = 18 mg/kg i.p. daily on days 11-15
[12] = 27 mg/kg i.p. daily on days 11-15
[13] = 40 mg/kg i.p. daily on days 11-15
[14] = L1210/CPA, i.p. day 2 only at MTD (CPA 200, Ifos 431, IPM 100 mg/kg)
[15] = L1210/0, i.p. day 2 only at MTD (CPA 200, Ifos 431, IPM 100 mg/kg)

O=P(O)(NCCCl)NCCBr [BC-IPM]
cytotoxicity to HeLa cells (HeLa cells): cytotoxic to HeLa cells in vitro
Days delay (T-C) [1]: 5.8

N[C@@H](Cc1ccc(N(CCCl)CCCl)cc1)C(=O)O [Melphalan]
Days delay (T-C) [1]: 28.1

O=P(O)(NCCBr)NCCBr [BB-IPM]
cytotoxicity to HeLa cells (HeLa cells): cytotoxic to HeLa cells in vitro
Days delay (T-C) [1]: 1.7

O=P1(NCCCl)OCCCN1CCCl (centres unmarked) [Ifos, ifosfamide]
Days delay (T-C) [1]: > 39.7
% ILS (dying mice only) (L1210/CPA leukemia; mouse, in vivo): +85
Day 60 survivors/total (L1210/CPA leukemia; mouse, in vivo): 0/10
Net log10 reduction in tumor burden after therapy (L1210/CPA leukemia; mouse, in vivo): 5
% ILS (dying mice only) (L1210/CPA leukemia; mouse, in vivo, ip, 289 mg/kg): +57
Day 60 survivors/total (L1210/CPA leukemia; mouse, in vivo, ip, 289 mg/kg): 0/10
Net log10 reduction in tumor burden after therapy (L1210/CPA leukemia; mouse, in vivo, ip, 289 mg/kg): 4
comparative activity vs. M5076 sarcoma, historically (M5076 sarcoma [2]): comparably active to CM-IPM
comparative activity against Lewis lung carcinoma (Lewis lung carcinoma): equivalent activity at equal host toxicity
cure rate (Lewis lung carcinoma): 50-70%
% ILS (increase in life span, excluding survivors) (Lewis lung carcinoma): 55
Log kill total (Log10 cell kill) (Lewis lung carcinoma): > 4.5
Tumour-free survivors (Lewis lung carcinoma): 7/10
activity vs. MX-1 ([3]; in vivo): high activity
tumor response / comparative activity vs. 16/C (mammary tumor 16/C): none of which caused tumor regression
MTD (in vivo [4]): 300 mg/kg
MTD (in vivo [5]): 431 mg/kg
% ILS (dying mice only) (L1210/0 leukemia; mouse, in vivo): +185
Day 60 survivors/total (L1210/0 leukemia; mouse, in vivo): 0/10
Net log10 reduction in tumor burden after therapy (L1210/0 leukemia; mouse, in vivo): 8
MTD Dosage (highest non-toxic dose, LD10 or less) (L1210/0 leukemia; mouse, in vivo, ip): 289 mg/kg
% ILS (dying mice only) (L1210/0 leukemia; mouse, in vivo, ip, 289 mg/kg): +114
Day 60 survivors/total (L1210/0 leukemia; mouse, in vivo, ip, 289 mg/kg): 0/9
Net log10 reduction in tumor burden after therapy (L1210/0 leukemia; mouse, in vivo, ip, 289 mg/kg): 8
comparative activity vs. P388 leukemia, historically (P388 leukemia [6]): comparably active to CM-IPM

CS(=O)(=O)OCCNP(=O)(O)NCCF [FM-IPM]
45-Day Surv/Total (P388 leukemia [7]): 0/5
% ILS (P388 leukemia [7]): +10
Approx. Net Log10 Change In Tumor Burden at End of Rx (P388 leukemia [7]): -1.4
Median Day of Death (P388 leukemia [7]): 13.0

CS(=O)(=O)OCCNP(=O)(O)NCCBr [BM-IPM]
Days delay (T-C) [1]: 4.7
activity vs. MX-1 ([3]; experiment analogous to MCF-7): good activity; also recorded: more active but less so than CPA and Ifos
comparative activity vs. LOX melanoma (LOX-IMVI melanoma): comparably active to IPM but less active than CPA
55-Day Surv./Total (LOX-IMVI melanoma; 15 mg/kg/dose): 0/5
% ILS (LOX-IMVI melanoma; 15 mg/kg/dose): +26%
Median Day of Death (LOX-IMVI melanoma; 15 mg/kg/dose): 24.0 days
55-Day Surv./Total (LOX-IMVI melanoma; 30 mg/kg/dose): 1/5
% ILS (LOX-IMVI melanoma; 30 mg/kg/dose): +52%
Median Day of Death (LOX-IMVI melanoma; 30 mg/kg/dose): 29.0 days
increase in life span (ILS) (LOX-IMVI melanoma): 52%
survivors (LOX-IMVI melanoma): 20%
Days delay (T-C) (M5076 sarcoma [8]; [11]): 0.8 days
Days to 2 Doublings (M5076 sarcoma [8]; [11]): 10.1 days
Tumor-free Surv/Total (M5076 sarcoma [8]; [11]): 0/6
Days delay (T-C) (M5076 sarcoma [8]; [12]): 7.2 days
Days to 2 Doublings (M5076 sarcoma [8]; [12]): 16.5 days
Tumor-free Surv/Total (M5076 sarcoma [8]; [12]): 0/6
Days to 2 Doublings (M5076 sarcoma [8]; [13]): Toxic
Tumor-free Surv/Total (M5076 sarcoma [8]; [13]): 0/6
days T-C (M5076 sarcoma [8]): 7.2 days
tumor response / comparative activity vs. 16/C (mammary tumor 16/C): superior to the clinical drugs CPA and Ifos and to MM-IPM
log cell kill (P388 leukemia [7]): 5.5 log
45-Day Surv/Total (P388 leukemia [7]): 0/5
% ILS (P388 leukemia [7]): +73
Approx. Net Log10 Change In Tumor Burden at End of Rx (P388 leukemia [7]): -5.5
Median Day of Death (P388 leukemia [7]): 19.0

O=P(O)(NCCCl)NCCCl [IPM, isophosphoramide mustard]
Days delay (T-C) [1]: 33.9
% ILS (dying mice only) (L1210/CPA leukemia; [14]): +114%
Net log10 reduction in tumor burden after therapy (L1210/CPA leukemia; [14]): 7 log10
Day 60 survivors/total (L1210/CPA leukemia; L1210/CPA, i.p. day 2 only at MTD (CPA 200, Ifos 431, IPM 100 mg/kg), tumor burden at start 6.0 × 10^7 cells): 1/10
comparative activity against Lewis lung carcinoma (Lewis lung carcinoma): equivalent activity at equal host toxicity
cure rate (Lewis lung carcinoma): 50-70%
% ILS (increase in life span, excluding survivors) (Lewis lung carcinoma): 34
Log kill total (Log10 cell kill) (Lewis lung carcinoma): > 2.1
Tumour-free survivors (Lewis lung carcinoma): 6/10
activity vs. MX-1 ([3]; experiment analogous to MCF-7): good activity; also recorded: more active but less so than CPA and Ifos
comparative therapeutic efficacy against experimental leukemias and solid tumors [9]: generally comparable to that of CPA and Ifos
55-Day Surv./Total (LOX-IMVI melanoma; 40 mg/kg/dose): 0/5
% ILS (LOX-IMVI melanoma; 40 mg/kg/dose): +52%
Median Day of Death (LOX-IMVI melanoma; 40 mg/kg/dose): 29.0 days
increase in life span (ILS) (LOX-IMVI melanoma): identical ILS
survivors (LOX-IMVI melanoma): no survivors
Days delay (T-C) (M5076 sarcoma [8]; [11]): 1.0 days
Days to 2 Doublings (M5076 sarcoma [8]; [11]): 10.3 days
Tumor-free Surv/Total (M5076 sarcoma [8]; [11]): 0/6
Days delay (T-C) (M5076 sarcoma [8]; [12]): 3.3 days
Days to 2 Doublings (M5076 sarcoma [8]; [12]): 12.6 days
Tumor-free Surv/Total (M5076 sarcoma [8]; [12]): 0/6
Days delay (T-C) (M5076 sarcoma [8]; [13]): 6.1 days
Days to 2 Doublings (M5076 sarcoma [8]; [13]): 15.4 days
Tumor-free Surv/Total (M5076 sarcoma [8]; [13]): 0/6
days T-C (M5076 sarcoma [8]): 6.1 days
tumor response / comparative activity vs. 16/C (mammary tumor 16/C): limited regression
log cell kill (P388 leukemia [7]): 4.8 log
45-Day Surv/Total (P388 leukemia [7]): 1/5
% ILS (P388 leukemia [7]): +64
Approx. Net Log10 Change In Tumor Burden at End of Rx (P388 leukemia [7]): -4.8
Median Day of Death (P388 leukemia [7]): 18.0
MTD (in vivo [4]): 100 mg/kg
MTD (in vivo [5]): 100 mg/kg
% ILS (dying mice only) (L1210/0 leukemia; [15]): +128%
Net log10 reduction in tumor burden after therapy (L1210/0 leukemia; [15]): 8 log10
Day 60 survivors/total (L1210/0 leukemia; L1210/0, i.p. day 2 only at MTD (CPA 200, Ifos 431, IPM 100 mg/kg), tumor burden at start 8.5 × 10^8 cells): 0/10
metabolite of Ifos in patients [10]: major metabolite

CS(=O)(=O)OCCNP(=O)(O)NCCCl [CM-IPM]
comparative activity vs. MCF-7 [1]: equal in activity to Ifos, slightly superior to IPM and melphalan (the positive control) and significantly superior to CPA and all of the other analogs; also recorded: superior to MM-IPM, BC-IPM and CPA, slightly more active than IPM, and equally active to Ifos
Days delay (T-C) [1]: > 39.7
activity vs. MX-1 ([3]; experiment analogous to MCF-7): only modest activity; also recorded: modestly active relative to CPA and Ifos
comparative activity vs. three experimental leukemias and solid tumors [9]: superior to IPM and other IPM analogs, including MM-IPM, vs. all three tumors
Days delay (T-C) (M5076 sarcoma [8]; [11]): 2.3 days
Days to 2 Doublings (M5076 sarcoma [8]; [11]): 11.6 days
Tumor-free Surv/Total (M5076 sarcoma [8]; [11]): 0/6
Days delay (T-C) (M5076 sarcoma [8]; [12]): 12.2 days
Days to 2 Doublings (M5076 sarcoma [8]; [12]): 21.5 days
Tumor-free Surv/Total (M5076 sarcoma [8]; [12]): 0/6
Days delay (T-C) (M5076 sarcoma [8]; [13]): 23.2 days
Days to 2 Doublings (M5076 sarcoma [8]; [13]): 32.5 days
Tumor-free Surv/Total (M5076 sarcoma [8]; [13]): 0/6
days T-C (M5076 sarcoma [8]): 23.2 days
tumor response / comparative activity vs. 16/C (mammary tumor 16/C): superior to the clinical drugs CPA and Ifos and to MM-IPM; also recorded: comparable to BM-IPM vs. 16/C mammary tumor, and superior to CPA and Ifos vs. 16/C tumor
log cell kill (P388 leukemia [7]): 6.1 log
45-Day Surv/Total (P388 leukemia [7]): 0/5
% ILS (P388 leukemia [7]): +82
Approx. Net Log10 Change In Tumor Burden at End of Rx (P388 leukemia [7]): -6.1
Median Day of Death (P388 leukemia [7]): 20.0

CS(=O)(=O)OCCCNP(=O)(O)NCCCl [CM3-IPM]
45-Day Surv/Total (P388 leukemia [7]): 0/5
% ILS (P388 leukemia [7]): +9
Approx. Net Log10 Change In Tumor Burden at End of Rx (P388 leukemia [7]): -0.7
Median Day of Death (P388 leukemia [7]): 12.0
